Test results as given in ChEMBL document CHEMBL1201862, “PubChem BioAssay data set” (2004).
Calls of active or inactive are those of the source.

Key:
[1] = DRD fibroblast viability loss – cell-based, non-viral oncogenic, luminescence, dose response (AID 1934); assay type: functional; settings: Homo sapiens
[2] = Counterscreen for AddAB inhibitors: absorbance-based bacterial cell-based high throughput dose response assay for inhibitors of bacterial viability. [Related pubchem assays (depositor defined):AID435030, AID449728, AID449731, AID488942, AID488955, AID488956]; assay type: functional
[3] = cells; assay type: functional, cell-based
[4] = target: Serine/threonine-protein phosphatase (Candida dubliniensis (strain CD36 / CBS 7987 / NCPF 3949 / NRRLY-17841) (Yeast), UniProt B9W6M3); experiment: blockers of CaCl2-induced CDRE-lacZ signaling – S. cerevisiae, luminescence, secondary, dose response (AID 2388); assay type: functional, cell-based;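 further: yeast reporter cells carrying a calcineurin-responsive lacZ construct stimulated with calcium chloride; luminescent beta-galactosidase reporter signal in whole cells rather than isolated phosphatase activity; potency for inhibition where a drop in reporter signal means calcineurin blockade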
[5] = target: ATP-dependent molecular chaperone HSP82 (Candida albicans (strain WO-1) (Yeast), UniProt C4YTQ8); experiment: steroid-induced GRE reporter decrease in yeast – S. cerevisiae, luminescence, Hsp90 inhibitor project, dose response (AID 2400); assay type: functional, cell-based;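 further: beta-galactosidase luminescence from glucocorticoid response element reporter as proxy for Hsp90 function; inhibitor potency where signal loss means Hsp90 inhibition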
[6] = tested on: HEK293; experiment: EBV LMP1 TES2 canonical NF-kB signalling blockers – cell-based, HEK293, luciferase, cherry-pick, dose response (AID 588343); assay type: functional, Homo sapiens; settings: Homo sapiens, HEK293
[7] = fluconazole-exposed Candida albicans growth modulators – fluorescence, retest, confirmation (AID 2467); assay type: functional, cell-based
[8] = target: Exodeoxyribonuclease V (Escherichia coli (strain K12), UniProt P04993+P07648+P08394); experiment: RecBCD inhibition via phage-restricted bacterial growth – absorbance, V66 E. coli, mutant T4 phage, counter-screen for AddAB inhibitor project, dose response (AID 492957); assay type: functional, cell-based, Escherichia coli str. K-12 substr. MG1655
[9] = tested on: INS1; experiment: INS-1E survival protection against cytokine death – cell-based, luminescence, retest, dose response (AID 449756); assay type: functional; settings: Rattus norvegicus;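 further: cell death triggered by IL-1 beta plus TNF-alpha plus IFN-gamma mixture; protective hits raise ATP signal compared with cytokine alone wells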
[10] = non-specific 3'UTR reporter inhibition in Clone20-Shn3RL – cell-based, Renilla luciferase, cherry-picked, counter-screen for Shn3 inhibitor project, dose response (AID 624133); assay type: functional
[11] = loss of viability in HepG2 cells – cell-based, CellTiter-Glo, cherry-picked, cytotoxicity control for Shn3 inhibitor project, dose response (AID 624134); assay type: functional
[12] = tested on: BJ; experiment: cells; assay type: functional, cell-based; settings: Homo sapiens
[13] = tested on: BJ; experiment: BJ-TERT fibroblast viability loss – cell-based, RAS-independent, luminescence, dose response (AID 1933); assay type: functional; settings: Homo sapiens
[14] = tested on: BJ; experiment: BJ-TERT-LT-ST fibroblast viability loss – cell-based, RAS-independent, luminescence, dose response (AID 1935); assay type: functional; settings: Homo sapiens;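 further: BJ fibroblasts immortalized with TERT plus LT and ST oncogenes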
[15] = NIH-3T3 fibroblast cytotoxicity, dose response, cytotoxicity control, cell-based, fluorescence, Alamar Blue, secondary assay (AID 2327); assay type: functional;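 further: NIH-3T3 mouse fibroblasts cultured with fluconazole at 8 µg/mL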
[16] = target: T1, Latent membrane protein 1 (Human herpesvirus 4 (strain B95-8), UniProt P03230); experiment: LMP1 TES1 pathway selectivity over dsRED control – imaging, HEK293T, dual-color eGFP/dsRED, cherry-picks, selectivity assay for LMP1 NF-kB inhibitor project, dose response (AID 588398); assay type: functional, cell-based
T1 sequence (P03230 whole entry): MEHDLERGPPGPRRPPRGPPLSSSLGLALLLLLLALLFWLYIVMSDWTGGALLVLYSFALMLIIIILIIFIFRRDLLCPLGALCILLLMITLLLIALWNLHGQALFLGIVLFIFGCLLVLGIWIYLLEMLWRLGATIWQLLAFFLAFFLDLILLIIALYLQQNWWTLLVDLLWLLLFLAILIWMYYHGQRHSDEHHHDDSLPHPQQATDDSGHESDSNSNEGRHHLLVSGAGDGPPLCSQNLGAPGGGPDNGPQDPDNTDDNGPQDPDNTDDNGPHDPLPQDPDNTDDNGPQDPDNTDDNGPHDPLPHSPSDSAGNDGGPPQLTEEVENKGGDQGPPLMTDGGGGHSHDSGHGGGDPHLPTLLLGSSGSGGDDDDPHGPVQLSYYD

[17] = reduction of Shn3 3'UTR-driven luciferase in osteoblasts – cell-based, Clone20 osteoblasts, firefly luciferase, cherry-picked, dose response (AID 624132); assay type: functional;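 further: firefly luciferase luminescence from reporter carrying the Shn3 3'UTR in osteoblasts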
[18] = cells; assay type: functional, cell-based; remark: listed apart in the source
[19] = target: T2, Zinc finger protein mex-5 (Caenorhabditis elegans, UniProt Q9XUB2); experiment: potency of MEX-5 RNA-binding blockers – biochemical, C. elegans, fluorescence polarization, dose response (AID 1960)
T2 sequence (Q9XUB2 whole entry): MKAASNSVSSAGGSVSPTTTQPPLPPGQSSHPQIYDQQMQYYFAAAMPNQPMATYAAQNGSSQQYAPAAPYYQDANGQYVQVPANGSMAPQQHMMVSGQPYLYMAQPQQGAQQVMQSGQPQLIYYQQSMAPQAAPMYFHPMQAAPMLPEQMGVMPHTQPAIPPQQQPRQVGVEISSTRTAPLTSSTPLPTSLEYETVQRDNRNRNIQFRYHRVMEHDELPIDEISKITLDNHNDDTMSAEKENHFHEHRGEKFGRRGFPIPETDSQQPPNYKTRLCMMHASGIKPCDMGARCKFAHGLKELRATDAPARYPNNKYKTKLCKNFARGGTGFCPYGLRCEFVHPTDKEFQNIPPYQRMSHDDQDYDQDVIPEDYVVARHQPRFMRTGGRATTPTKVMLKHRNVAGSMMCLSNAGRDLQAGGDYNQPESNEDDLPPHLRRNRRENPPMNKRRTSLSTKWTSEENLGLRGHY

[20] = target: T3, RNA-binding protein pos-1 (Caenorhabditis elegans, UniProt G5EF15); experiment: disruptors of C. elegans POS-1 RNA interaction – biochemical, fluorescence polarization, dose response (AID 1964);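 further: purified POS-1 fused to maltose binding protein made in E. coli; potency of compounds blocking POS-1 binding to fluorescent RNA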
T3 sequence (G5EF15 whole entry): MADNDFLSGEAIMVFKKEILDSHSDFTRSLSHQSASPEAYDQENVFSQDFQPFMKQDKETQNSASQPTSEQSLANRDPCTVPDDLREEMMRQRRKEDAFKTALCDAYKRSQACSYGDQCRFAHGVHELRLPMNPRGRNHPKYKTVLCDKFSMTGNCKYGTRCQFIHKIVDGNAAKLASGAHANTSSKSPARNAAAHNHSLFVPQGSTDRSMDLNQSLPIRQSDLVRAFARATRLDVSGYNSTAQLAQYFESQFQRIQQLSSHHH

[21] = target: T4, Endoribonuclease toxin MazF (Escherichia coli K-12, UniProt P0AE70); experiment: substrate-only fluorescence increase artefacts – biochemical, single-stranded RNase substrate, counter-screen for MazEF activator project, dose response (AID 588502); assay type: functional
[22] = target: T4, Endoribonuclease toxin MazF; experiment: activation of MazEF endoribonuclease cleavage – biochemical, fluorescence, single-stranded RNA substrate, uHTS hits, dose response (AID 588481); assay type: functional
[23] = target: Beta-adrenergic receptor kinase 1 (Homo sapiens, UniProt P25098); experiment: aptamer displacement from bead-bound GRK2 – biochemical, cherry pick 1, bead flow cytometry, dose response (AID 504500)
[24] = target: T5, Heat shock factor protein 1 (Mus musculus, UniProt P38532); experiment: enhancement of HSF1-driven luciferase signal – cell-based, NIH3T3, luminescence, dose retest, confirmation (AID 435004); assay type: functional;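 further: stress induced by proteasome inhibitor MG132 added 30 min after compound; luciferase reporter driven by HSF1 response element in NIH3T3 cells; actives raise luminescence as potentiators of the MG132 stress response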
T5 sequence (P38532 whole entry): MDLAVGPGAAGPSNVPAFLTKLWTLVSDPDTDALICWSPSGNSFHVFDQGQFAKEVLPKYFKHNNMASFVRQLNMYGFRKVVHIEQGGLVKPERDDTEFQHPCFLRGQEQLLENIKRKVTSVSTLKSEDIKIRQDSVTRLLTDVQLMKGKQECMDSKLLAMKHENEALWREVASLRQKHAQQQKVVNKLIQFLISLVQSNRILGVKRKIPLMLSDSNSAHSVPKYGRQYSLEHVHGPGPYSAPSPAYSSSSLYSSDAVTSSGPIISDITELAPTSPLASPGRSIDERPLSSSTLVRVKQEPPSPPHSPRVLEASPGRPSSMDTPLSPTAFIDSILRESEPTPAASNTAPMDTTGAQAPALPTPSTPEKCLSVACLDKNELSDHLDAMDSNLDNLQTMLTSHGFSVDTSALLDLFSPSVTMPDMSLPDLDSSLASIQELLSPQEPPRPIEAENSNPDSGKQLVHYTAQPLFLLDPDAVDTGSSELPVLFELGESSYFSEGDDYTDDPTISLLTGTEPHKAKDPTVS

[25] = target: Tyrosine-protein phosphatase non-receptor type 11 (Homo sapiens, UniProt Q06124); experiment: PTPN11 enzyme inhibitors – biochemical, selectivity assay for STEP inhibitor project, dose response (AID 602367); assay type: functional; settings: read-out: IC50_Mean
[26] = target: Dual specificity protein phosphatase 3 (Homo sapiens, UniProt P51452); experiment: VHR phosphatase inhibition, dose response, selectivity assay for STEP inhibitor project, biochemical (AID 602374); assay type: functional; settings: read-out: IC50_Mean
[27] = target: Tyrosine-protein phosphatase non-receptor type 5 (Homo sapiens, UniProt P54829); experiment: PTPN5 enzyme inhibition – biochemical, fluorescence intensity, uHTS hits, confirmation (AID 602372); assay type: functional; settings: read-out: IC50_Mean
[28] = tested on: Candida albicans; experiment: C. albicans growth inhibition with fluconazole – CaCi-2 strain, Alamar Blue, dry powder, set 4, dose response (AID 488943); assay type: functional, organism-based
[29] = tested on: Candida albicans; experiment: fluconazole-resistant Candida strain growth inhibitors – CaCi-8 strain, dry powder, set 4, dose response (AID 488950); assay type: functional, organism-based
[30] = tested on: Candida albicans; experiment: resistant Candida growth with fluconazole co-treatment – CaCi-8 strain, Alamar Blue, dry powder, set 2, dose response (AID 488909); assay type: functional, organism-based
[31] = target: Hexokinase-1 (Homo sapiens, UniProt P19367); experiment: SAR analysis of small molecule inhibitors of hexokinase domain containing I (HKDC1) in the hexokinase 1 selectivity assay. [Related pubchem assays (depositor defined):AID493160, AID493190]; assay type: functional
[32] = target: T6, Hexokinase HKDC1 (Homo sapiens, UniProt Q2TB90); experiment: SAR analysis of small molecule inhibitors of hexokinase domain containing I (HKDC1). [Related pubchem assays (depositor defined):AID493160, AID493190]; assay type: functional
T6 sequence (Q2TB90 whole entry): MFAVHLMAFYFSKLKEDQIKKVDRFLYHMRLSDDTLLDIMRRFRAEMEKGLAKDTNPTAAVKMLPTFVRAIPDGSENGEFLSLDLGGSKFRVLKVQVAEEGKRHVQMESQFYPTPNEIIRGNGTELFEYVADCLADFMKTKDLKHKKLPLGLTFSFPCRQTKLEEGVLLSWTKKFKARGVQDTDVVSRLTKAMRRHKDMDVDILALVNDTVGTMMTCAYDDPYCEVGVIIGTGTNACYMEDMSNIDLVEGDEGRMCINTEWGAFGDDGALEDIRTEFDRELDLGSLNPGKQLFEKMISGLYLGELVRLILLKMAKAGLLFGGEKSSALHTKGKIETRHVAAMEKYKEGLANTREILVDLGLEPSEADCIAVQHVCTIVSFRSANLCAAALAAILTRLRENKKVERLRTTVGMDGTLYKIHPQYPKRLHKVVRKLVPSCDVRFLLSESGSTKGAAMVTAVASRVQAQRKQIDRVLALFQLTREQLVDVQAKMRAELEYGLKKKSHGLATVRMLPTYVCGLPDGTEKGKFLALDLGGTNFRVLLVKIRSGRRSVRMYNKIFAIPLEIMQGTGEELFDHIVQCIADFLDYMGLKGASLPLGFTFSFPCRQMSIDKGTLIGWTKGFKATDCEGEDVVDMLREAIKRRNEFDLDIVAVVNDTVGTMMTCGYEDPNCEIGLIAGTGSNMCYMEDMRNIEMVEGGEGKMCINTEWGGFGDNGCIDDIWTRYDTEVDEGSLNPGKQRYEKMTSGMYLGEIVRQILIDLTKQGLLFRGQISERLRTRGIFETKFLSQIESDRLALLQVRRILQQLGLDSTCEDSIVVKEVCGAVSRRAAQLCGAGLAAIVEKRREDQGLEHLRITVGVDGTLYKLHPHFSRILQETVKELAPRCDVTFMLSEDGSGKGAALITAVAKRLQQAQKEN

T4 sequence (P0AE70 whole entry): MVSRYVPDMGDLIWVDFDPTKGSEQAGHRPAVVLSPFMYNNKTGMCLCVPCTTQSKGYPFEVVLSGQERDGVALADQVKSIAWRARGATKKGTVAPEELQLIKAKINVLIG
Hexokinase-1, sequence (P19367 whole entry, the tested form may be a part): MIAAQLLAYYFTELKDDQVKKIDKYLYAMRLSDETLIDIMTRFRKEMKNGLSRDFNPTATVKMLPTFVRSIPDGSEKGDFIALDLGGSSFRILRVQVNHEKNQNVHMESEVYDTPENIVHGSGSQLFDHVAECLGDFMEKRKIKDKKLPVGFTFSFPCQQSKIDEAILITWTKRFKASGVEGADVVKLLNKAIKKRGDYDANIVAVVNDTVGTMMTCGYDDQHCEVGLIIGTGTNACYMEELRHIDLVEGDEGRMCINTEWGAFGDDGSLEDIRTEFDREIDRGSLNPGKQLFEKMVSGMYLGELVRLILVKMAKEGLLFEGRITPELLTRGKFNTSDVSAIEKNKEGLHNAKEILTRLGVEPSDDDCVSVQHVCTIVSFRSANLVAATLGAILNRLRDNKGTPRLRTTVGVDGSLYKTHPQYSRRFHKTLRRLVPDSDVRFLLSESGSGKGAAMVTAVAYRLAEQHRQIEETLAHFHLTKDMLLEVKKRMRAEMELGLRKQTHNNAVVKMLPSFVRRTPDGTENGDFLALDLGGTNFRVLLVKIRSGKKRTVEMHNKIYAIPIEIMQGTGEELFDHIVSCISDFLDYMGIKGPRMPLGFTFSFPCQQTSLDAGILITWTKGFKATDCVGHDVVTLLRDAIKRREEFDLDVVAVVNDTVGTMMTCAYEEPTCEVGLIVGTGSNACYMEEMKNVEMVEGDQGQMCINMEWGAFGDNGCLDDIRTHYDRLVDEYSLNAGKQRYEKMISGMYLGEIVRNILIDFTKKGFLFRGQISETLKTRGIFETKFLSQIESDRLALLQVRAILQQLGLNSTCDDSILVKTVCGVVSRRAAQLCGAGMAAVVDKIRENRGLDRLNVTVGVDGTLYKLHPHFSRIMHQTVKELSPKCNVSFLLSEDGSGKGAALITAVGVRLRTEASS
Dual specificity protein phosphatase 3, sequence (P51452 whole entry): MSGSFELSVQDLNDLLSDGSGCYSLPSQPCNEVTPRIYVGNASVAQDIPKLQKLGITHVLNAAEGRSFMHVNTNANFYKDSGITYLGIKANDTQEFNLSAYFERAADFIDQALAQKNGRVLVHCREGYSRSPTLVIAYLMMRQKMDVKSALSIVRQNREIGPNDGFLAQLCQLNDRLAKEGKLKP
Tyrosine-protein phosphatase non-receptor type 11, sequence (Q06124 whole entry): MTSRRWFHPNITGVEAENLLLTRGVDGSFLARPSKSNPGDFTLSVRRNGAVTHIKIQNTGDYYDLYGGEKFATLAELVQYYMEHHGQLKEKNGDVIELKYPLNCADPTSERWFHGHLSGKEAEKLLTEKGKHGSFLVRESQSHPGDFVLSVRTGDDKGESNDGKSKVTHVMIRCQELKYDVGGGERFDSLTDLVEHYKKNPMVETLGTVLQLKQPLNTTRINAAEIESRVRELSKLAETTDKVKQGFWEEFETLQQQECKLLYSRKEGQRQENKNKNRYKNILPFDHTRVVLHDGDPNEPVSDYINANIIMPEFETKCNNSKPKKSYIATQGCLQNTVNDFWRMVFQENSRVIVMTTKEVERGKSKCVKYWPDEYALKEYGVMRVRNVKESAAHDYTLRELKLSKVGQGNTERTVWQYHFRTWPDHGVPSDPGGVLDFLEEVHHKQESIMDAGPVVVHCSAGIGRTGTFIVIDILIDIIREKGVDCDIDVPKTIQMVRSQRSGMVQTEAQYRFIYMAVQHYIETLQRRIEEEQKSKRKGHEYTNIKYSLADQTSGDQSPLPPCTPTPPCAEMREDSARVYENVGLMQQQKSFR
Tyrosine-protein phosphatase non-receptor type 5, sequence (P54829 whole entry): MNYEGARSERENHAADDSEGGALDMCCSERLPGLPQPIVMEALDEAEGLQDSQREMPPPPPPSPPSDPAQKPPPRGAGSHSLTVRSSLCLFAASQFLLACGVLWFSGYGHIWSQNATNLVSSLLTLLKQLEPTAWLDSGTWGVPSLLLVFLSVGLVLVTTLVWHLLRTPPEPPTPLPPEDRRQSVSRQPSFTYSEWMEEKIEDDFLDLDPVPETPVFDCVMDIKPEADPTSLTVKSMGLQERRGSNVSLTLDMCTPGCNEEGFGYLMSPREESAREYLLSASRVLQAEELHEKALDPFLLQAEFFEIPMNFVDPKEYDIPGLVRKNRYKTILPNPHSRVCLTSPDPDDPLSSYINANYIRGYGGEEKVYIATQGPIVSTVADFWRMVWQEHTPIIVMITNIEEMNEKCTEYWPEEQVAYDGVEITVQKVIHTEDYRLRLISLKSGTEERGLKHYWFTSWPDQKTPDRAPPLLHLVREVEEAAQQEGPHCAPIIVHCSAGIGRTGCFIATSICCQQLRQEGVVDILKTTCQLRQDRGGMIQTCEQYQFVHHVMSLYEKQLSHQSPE
ATP-dependent molecular chaperone HSP82, sequence (C4YTQ8 whole entry): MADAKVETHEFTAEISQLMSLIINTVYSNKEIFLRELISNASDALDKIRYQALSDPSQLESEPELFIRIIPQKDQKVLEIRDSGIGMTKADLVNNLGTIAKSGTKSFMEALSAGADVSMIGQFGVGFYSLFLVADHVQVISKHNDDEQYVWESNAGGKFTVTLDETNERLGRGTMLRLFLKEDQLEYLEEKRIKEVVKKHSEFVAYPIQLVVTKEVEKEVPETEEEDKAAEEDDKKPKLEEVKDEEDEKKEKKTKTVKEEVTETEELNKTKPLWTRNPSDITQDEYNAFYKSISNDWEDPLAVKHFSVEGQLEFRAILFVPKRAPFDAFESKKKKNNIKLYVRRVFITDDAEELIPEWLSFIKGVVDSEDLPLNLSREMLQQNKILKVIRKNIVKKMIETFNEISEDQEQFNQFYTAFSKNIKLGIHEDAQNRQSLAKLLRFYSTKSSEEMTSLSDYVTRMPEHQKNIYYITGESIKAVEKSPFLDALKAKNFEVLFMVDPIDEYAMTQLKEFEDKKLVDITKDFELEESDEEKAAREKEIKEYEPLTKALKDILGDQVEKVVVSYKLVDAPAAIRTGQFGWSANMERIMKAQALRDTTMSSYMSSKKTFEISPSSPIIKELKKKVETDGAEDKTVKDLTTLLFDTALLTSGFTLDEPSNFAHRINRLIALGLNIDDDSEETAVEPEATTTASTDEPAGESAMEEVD
Serine/threonine-protein phosphatase, sequence (B9W6M3 whole entry): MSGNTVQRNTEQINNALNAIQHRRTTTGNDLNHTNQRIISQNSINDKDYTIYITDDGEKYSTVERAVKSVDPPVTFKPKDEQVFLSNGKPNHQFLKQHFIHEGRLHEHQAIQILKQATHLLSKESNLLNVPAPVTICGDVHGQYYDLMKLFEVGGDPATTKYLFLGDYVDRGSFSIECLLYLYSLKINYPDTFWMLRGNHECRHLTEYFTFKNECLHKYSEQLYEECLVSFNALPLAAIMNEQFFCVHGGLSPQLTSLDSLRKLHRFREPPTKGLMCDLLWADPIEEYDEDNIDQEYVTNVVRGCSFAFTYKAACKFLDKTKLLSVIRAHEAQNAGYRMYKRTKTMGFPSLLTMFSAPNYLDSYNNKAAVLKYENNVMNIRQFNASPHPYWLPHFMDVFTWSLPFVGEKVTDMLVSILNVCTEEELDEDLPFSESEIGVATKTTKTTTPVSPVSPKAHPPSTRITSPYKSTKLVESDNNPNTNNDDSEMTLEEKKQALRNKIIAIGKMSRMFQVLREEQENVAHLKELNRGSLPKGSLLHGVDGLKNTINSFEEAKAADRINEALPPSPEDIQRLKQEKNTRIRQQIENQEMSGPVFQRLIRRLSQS
Beta-adrenergic receptor kinase 1, sequence (P25098 whole entry): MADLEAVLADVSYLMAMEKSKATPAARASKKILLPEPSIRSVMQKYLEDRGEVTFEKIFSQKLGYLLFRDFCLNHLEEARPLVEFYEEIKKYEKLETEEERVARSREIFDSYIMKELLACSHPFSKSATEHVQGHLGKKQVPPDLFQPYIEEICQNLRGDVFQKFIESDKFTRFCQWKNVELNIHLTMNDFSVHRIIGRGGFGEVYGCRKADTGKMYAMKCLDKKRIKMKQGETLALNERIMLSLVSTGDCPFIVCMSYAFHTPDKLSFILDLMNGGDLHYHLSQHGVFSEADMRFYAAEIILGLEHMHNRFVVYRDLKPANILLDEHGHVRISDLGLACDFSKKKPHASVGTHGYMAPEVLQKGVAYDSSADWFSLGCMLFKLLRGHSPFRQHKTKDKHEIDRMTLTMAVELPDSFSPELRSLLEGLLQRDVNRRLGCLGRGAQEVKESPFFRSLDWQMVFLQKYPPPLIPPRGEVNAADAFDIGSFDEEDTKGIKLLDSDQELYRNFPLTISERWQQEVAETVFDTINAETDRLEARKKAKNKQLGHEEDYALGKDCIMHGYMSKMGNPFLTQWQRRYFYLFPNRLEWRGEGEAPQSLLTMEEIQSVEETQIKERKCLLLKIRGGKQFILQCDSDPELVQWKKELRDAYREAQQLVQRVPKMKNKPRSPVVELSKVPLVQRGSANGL

**Q.** Which results are given for `Oc1cccc(C(Nc2nccs2)c2ccc3cccnc3c2O)c1` (configuration not stated)?
**A.** EC50 [1]: 6.12 µM (active); IC50 [2]: 107 µM (inactive); EC50 [3]: 13.2 µM (active); EC50 [4]: > 180 µM (inactive); EC50 [5]: > 160 µM (inactive); AC50 [6]: 14 µM (active); EC50 [7]: 0.796 µM (active); IC50 [8]: > 119 µM (inactive); AC50 [9]: 0.95 µM (active); AC50 [10]: 1.87 µM (active); AC50 [11]: 5.04 µM (active); EC50 [12]: 8.06 µM (active); EC50 [13]: 9.83 µM (active); EC50 [14]: 6.31 µM (active); EC50 [15]: 20.1 µM (inconclusive); AC50 [16]: 8.97 µM (active); AC50 [17]: 1.67 µM (active); EC50 [18]: > 350 µM (not active)

**Q.** With `CC(=O)N1CCN(c2ccc(N/C=C3\C(=O)NC(=O)N(Cc4ccccc4)C3=O)cc2)CC1` as the compound, how does the EC50 [19] read?
**A.** 83.1 µM (active)

**Q.** And the EC50 [20]?
**A.** > 300 µM (not active)

**Q.** What about the EC50 [21] of the same compound?
**A.** 19 µM (active)

**Q.** What about the EC50 [22] of the same compound?
**A.** > 99 µM (inactive)

**Q.** What does the source list for `CCOC(=O)CC(NS(=O)(=O)c1ccc2ncc(C(=O)O)c(O)c2c1)c1ccc(OCC)c(OC)c1` (configuration not stated)?
**A.** EC50 [23]: 3.62 µM (active); EC50 [24]: > 260 µM (inactive); IC50 [25]: 1.53 µM (active); IC50 [26]: 3 µM (active); IC50 [27]: 46.3 µM (inactive)

**Q.** Which AC50 [28] does the source give for `O=C(c1ccccc1Cl)N1CCN(c2ccnc3cc(Cl)ccc23)CC1` here?
**A.** 4.8 µM (active)

**Q.** And the AC50 [29]?
**A.** 7.36 µM (active)

**Q.** What about the AC50 [30] of the same compound?
**A.** 25.2 µM (active)

**Q.** With `O=C(CSc1ncccn1)Nc1cccc(S(=O)(=O)N2CCOCC2)c1` as the compound, how does the IC50 [31] read?
**A.** > 80 µM (inactive)

**Q.** And the IC50 [32]?
**A.** > 80 µM (inactive)
